Measurements as given in ChEMBL document CHEMBL3885881, “DrugMatrix”.
Values joined by “and” are separate entries in the source; they are usually repeats but may differ in a detail not shown here. Equal values may be shown once.

Organism: Rattus norvegicus
Assay: DrugMatrix - Regimen: Daily Repeat
Assay type: toxicity, organism-based, Sprague-Dawley
Set-up: regimen Daily Repeat, gender Male, age 6-8 weeks
Conditions: in vivo, po, route oral GAVAGE, vehicle 100 % WATER; for ABSOLUTE BASOPHIL / ABSOLUTE LYMPHOCYTE / ABSOLUTE SEGMENTED NEUTROPHIL / BASOPHIL / EOSINOPHIL / ERYTHROCYTE COUNT / HEMATOCRIT / LEUKOCYTE COUNT / LYMPHOCYTE / MEAN CORPUSCULAR HEMOGLOBIN / MEAN CORPUSCULAR HEMOGLOBIN CONCENTRATION / MEAN CORPUSCULAR VOLUME / MONOCYTE / NEUTROPHIL / NUCLEATED RED BLOOD CELLS / PLATELET COUNT / ABSOLUTE MONOCYTE / ABSOLUTE EOSINOPHIL: tissue Blood; for ALANINE AMINOTRANSFERASE / ALBUMIN / ALKALINE PHOSPHATASE / ASPARTATE AMINOTRANSFERASE / BLOOD UREA NITROGEN / CARBON DIOXIDE / CHLORIDE / CHOLESTEROL / CREATINE PHOSPHOKINASE / CREATININE / GLUCOSE / LACTATE DEHYDROGENASE / LIPASE / PHOSPHORUS / POTASSIUM / SODIUM / TOTAL BILIRUBIN / TOTAL PROTEIN / URIC ACID: tissue Plasma
[1] = 0 mg/kg, 72 h, dose level Control, time 3 day
[2] = 0 mg/kg, 120 h, dose level Control, time 5 day
[3] = 235 mg/kg, 72 h, dose level Low, time 3 day
[4] = 235 mg/kg, 120 h, dose level Low, time 5 day
[5] = 850 mg/kg, 72 h, dose level M1, time 3 day

CCCC(CCC)C(=O)O [VALPROIC ACID]
ABSOLUTE BASOPHIL [1]: 0 CELLS/uL | ABSOLUTE LYMPHOCYTE [1]: 10696 CELLS/uL and 11257.17 CELLS/uL | ABSOLUTE SEGMENTED NEUTROPHIL [1]: 1045.33 CELLS/uL and 1220.33 CELLS/uL | BASOPHIL [1]: 0% | EOSINOPHIL [1]: 1% and 0.33% | ERYTHROCYTE COUNT [1]: 5.87 x10E6/uL and 5 x10E6/uL | HEMATOCRIT [1]: 38.5% and 32.62% | LEUKOCYTE COUNT [1]: 12.07 x10E3/uL and 12.58 x10E3/uL | LYMPHOCYTE [1]: 88.33% and 89% | MEAN CORPUSCULAR HEMOGLOBIN [1]: 23.47 pg and 25.67 pg | MEAN CORPUSCULAR HEMOGLOBIN CONCENTRATION [1]: 35.7 G/DL and 39.35 G/DL | MEAN CORPUSCULAR VOLUME [1]: 65.63 fL and 65.23 fL | MONOCYTE [1]: 2% and 0.67% | NEUTROPHIL [1]: 8.67% and 10% | NUCLEATED RED BLOOD CELLS [1]: 0 /100WBC | PLATELET COUNT [1]: 1151.33 x10E3/uL and 1162.5 x10E3/uL | ALANINE AMINOTRANSFERASE [1]: 60.67 u/L and 45.33 u/L | ALBUMIN [1]: 4.23 G/DL and 3.95 G/DL | ALKALINE PHOSPHATASE [1]: 377.67 u/L and 356.17 u/L | ASPARTATE AMINOTRANSFERASE [1]: 85.33 u/L and 81 u/L | BLOOD UREA NITROGEN [1]: 15 mg/dL and 11 mg/dL | CARBON DIOXIDE [1]: 37 mmol/L and 29.83 mmol/L | CHLORIDE [1]: 97.67 MEQ/L and 97.8 MEQ/L | CHOLESTEROL [1]: 70.67 mg/dL and 65.17 mg/dL | CREATINE PHOSPHOKINASE [1]: 361.67 u/L and 211.33 u/L | CREATININE [1]: 0.18 mg/dL and 0.11 mg/dL | GLUCOSE [1]: 154 mg/dL and 164.67 mg/dL | LACTATE DEHYDROGENASE [1]: 99 u/L and 143.17 u/L | LIPASE [1]: 12.67 u/L and 10.17 u/L | PHOSPHORUS [1]: 9.53 mg/dL and 10.88 mg/dL | POTASSIUM [1]: 5.55 MEQ/L and 6.08 MEQ/L | SODIUM [1]: 143.1 MEQ/L and 141.54 MEQ/L | TOTAL BILIRUBIN [1]: 0.2 mg/dL and 0.23 mg/dL | TOTAL PROTEIN [1]: 5.97 G/DL and 5.65 G/DL | URIC ACID [1]: 0.77 mg/dL and 1 mg/dL | ABSOLUTE BASOPHIL [2]: 0 CELLS/uL | ABSOLUTE LYMPHOCYTE [2]: 9535 CELLS/uL and 9267.83 CELLS/uL | ABSOLUTE MONOCYTE [2]: 182 CELLS/uL and 194.33 CELLS/uL | ABSOLUTE SEGMENTED NEUTROPHIL [2]: 783 CELLS/uL and 572.5 CELLS/uL | BASOPHIL [2]: 0% | EOSINOPHIL [2]: 0% and 0.33% | ERYTHROCYTE COUNT [2]: 5.35 x10E6/uL and 5.41 x10E6/uL | HEMATOCRIT [2]: 34.17% and 36.17% | LEUKOCYTE COUNT [2]: 10.5 x10E3/uL and 10.08 x10E3/uL | LYMPHOCYTE [2]: 89.67% and 92.17% | MEAN CORPUSCULAR HEMOGLOBIN [2]: 24.67 pg and 25.73 pg | MEAN CORPUSCULAR HEMOGLOBIN CONCENTRATION [2]: 38.57 G/DL and 38.45 G/DL | MEAN CORPUSCULAR VOLUME [2]: 63.9 fL and 66.97 fL | MONOCYTE [2]: 1.67% and 1.83% | NEUTROPHIL [2]: 8.67% and 5.67% | PLATELET COUNT [2]: 990 x10E3/uL and 1122.33 x10E3/uL | ALANINE AMINOTRANSFERASE [2]: 46.67 u/L and 52.83 u/L | ALBUMIN [2]: 3.97 G/DL and 4.12 G/DL | ALKALINE PHOSPHATASE [2]: 343.67 u/L and 367.33 u/L | ASPARTATE AMINOTRANSFERASE [2]: 71 u/L and 88 u/L | BLOOD UREA NITROGEN [2]: 11.67 mg/dL and 12.67 mg/dL | CARBON DIOXIDE [2]: 27 mmol/L and 33.67 mmol/L | CHLORIDE [2]: 105.33 MEQ/L and 97 MEQ/L | CHOLESTEROL [2]: 70.67 mg/dL and 67.5 mg/dL | CREATINE PHOSPHOKINASE [2]: 208.67 u/L and 358.67 u/L | CREATININE [2]: 0.1 mg/dL and 0.14 mg/dL | GLUCOSE [2]: 161.33 mg/dL and 152.33 mg/dL | LIPASE [2]: 9.33 u/L and 10.5 u/L | PHOSPHORUS [2]: 12.7 mg/dL and 10.63 mg/dL | POTASSIUM [2]: 5.59 MEQ/L and 5.99 MEQ/L | SODIUM [2]: 147.1 MEQ/L and 141.85 MEQ/L | TOTAL BILIRUBIN [2]: 0.17 mg/dL and 0.2 mg/dL | TOTAL PROTEIN [2]: 5.97 G/DL and 6.18 G/DL | URIC ACID [2]: 0.73 mg/dL and 0.52 mg/dL | ABSOLUTE BASOPHIL [3]: 0 CELLS/uL | ABSOLUTE EOSINOPHIL [3]: 39.33 CELLS/uL | ABSOLUTE LYMPHOCYTE [3]: 3794.33 CELLS/uL | ABSOLUTE MONOCYTE [3]: 121.33 CELLS/uL | ABSOLUTE SEGMENTED NEUTROPHIL [3]: 678.33 CELLS/uL | BASOPHIL [3]: 0% | EOSINOPHIL [3]: 0.67% | ERYTHROCYTE COUNT [3]: 5.06 x10E6/uL | HEMATOCRIT [3]: 32.73% | LEUKOCYTE COUNT [3]: 4.63 x10E3/uL | LYMPHOCYTE [3]: 81.33% | MEAN CORPUSCULAR HEMOGLOBIN [3]: 25.03 pg | MEAN CORPUSCULAR HEMOGLOBIN CONCENTRATION [3]: 38.63 G/DL | MEAN CORPUSCULAR VOLUME [3]: 64.7 fL | MONOCYTE [3]: 2.67% | NEUTROPHIL [3]: 15.33% | NUCLEATED RED BLOOD CELLS [3]: 0 /100WBC | PLATELET COUNT [3]: 772 x10E3/uL | ALANINE AMINOTRANSFERASE [3]: 57 u/L | ALBUMIN [3]: 4.1 G/DL | ALKALINE PHOSPHATASE [3]: 212.67 u/L | ASPARTATE AMINOTRANSFERASE [3]: 81 u/L | BLOOD UREA NITROGEN [3]: 11 mg/dL | CARBON DIOXIDE [3]: 37.33 mmol/L | CHLORIDE [3]: 98.33 MEQ/L | CHOLESTEROL [3]: 62 mg/dL | CREATINE PHOSPHOKINASE [3]: 233 u/L | CREATININE [3]: 0.3 mg/dL | GLUCOSE [3]: 154 mg/dL | LACTATE DEHYDROGENASE [3]: 73 u/L | LIPASE [3]: 10 u/L | PHOSPHORUS [3]: 9.7 mg/dL | POTASSIUM [3]: 5.09 MEQ/L | SODIUM [3]: 143.63 MEQ/L | TOTAL BILIRUBIN [3]: 0.13 mg/dL | TOTAL PROTEIN [3]: 5.57 G/DL | URIC ACID [3]: 0.47 mg/dL | ABSOLUTE BASOPHIL [4]: 0 CELLS/uL | ABSOLUTE EOSINOPHIL [4]: 0 CELLS/uL | ABSOLUTE LYMPHOCYTE [4]: 6770.33 CELLS/uL | ABSOLUTE MONOCYTE [4]: 195 CELLS/uL | ABSOLUTE SEGMENTED NEUTROPHIL [4]: 868 CELLS/uL | BASOPHIL [4]: 0% | EOSINOPHIL [4]: 0% | ERYTHROCYTE COUNT [4]: 5.27 x10E6/uL | HEMATOCRIT [4]: 33.47% | LEUKOCYTE COUNT [4]: 7.83 x10E3/uL | LYMPHOCYTE [4]: 89% | MEAN CORPUSCULAR HEMOGLOBIN [4]: 24.47 pg | MEAN CORPUSCULAR HEMOGLOBIN CONCENTRATION [4]: 38.57 G/DL | MEAN CORPUSCULAR VOLUME [4]: 63.43 fL | MONOCYTE [4]: 2.33% | NEUTROPHIL [4]: 8.67% | NUCLEATED RED BLOOD CELLS [4]: 0 /100WBC | PLATELET COUNT [4]: 955 x10E3/uL | ALANINE AMINOTRANSFERASE [4]: 52.33 u/L | ALBUMIN [4]: 4.03 G/DL | ALKALINE PHOSPHATASE [4]: 290.67 u/L | ASPARTATE AMINOTRANSFERASE [4]: 77.33 u/L | BLOOD UREA NITROGEN [4]: 12 mg/dL | CARBON DIOXIDE [4]: 28.67 mmol/L | CHLORIDE [4]: 103.67 MEQ/L | CHOLESTEROL [4]: 71.67 mg/dL | CREATINE PHOSPHOKINASE [4]: 272 u/L | CREATININE [4]: 0.22 mg/dL | GLUCOSE [4]: 144.33 mg/dL | LACTATE DEHYDROGENASE [4]: 50.67 u/L | LIPASE [4]: 9.33 u/L | PHOSPHORUS [4]: 10.47 mg/dL | POTASSIUM [4]: 5.47 MEQ/L | SODIUM [4]: 144.07 MEQ/L | TOTAL BILIRUBIN [4]: 0.13 mg/dL | TOTAL PROTEIN [4]: 5.93 G/DL | URIC ACID [4]: 0.43 mg/dL | ABSOLUTE BASOPHIL [5]: 0 CELLS/uL | ABSOLUTE EOSINOPHIL [5]: 40.67 CELLS/uL
